Measured values from the kinase profiling compilation of Christmann-Franck et al. (2016).

Legend:
Assay in all cases: KINOMEscan competition binding
Settings in all cases: compound 10.0 µM
[1] = system: KIT (human), P10721 [L576P]
[2] = target: TGFBR2 (human) (UniProt P37173)
[3] = target: MAP3K5 (human) (UniProt Q99683)
[4] = target: MAP2K4 (human) (UniProt P45985)
[5] = target: TYRO3 (human) (UniProt Q06418)
[6] = target: CAMK2B (human) (UniProt Q13554)
[7] = target: PRKAA2 (human) (UniProt P54646)
[8] = target: PRKCH (human) (UniProt P24723)
[9] = target: STK32C (human) (UniProt Q86UX6)
[10] = target: CDK9 (human) (UniProt P50750)
[11] = target: PKN1 (human) (UniProt Q16512)
[12] = target: CHUK (human) (UniProt O15111)
CHUK (human), sequence (O15111 whole entry, looked up): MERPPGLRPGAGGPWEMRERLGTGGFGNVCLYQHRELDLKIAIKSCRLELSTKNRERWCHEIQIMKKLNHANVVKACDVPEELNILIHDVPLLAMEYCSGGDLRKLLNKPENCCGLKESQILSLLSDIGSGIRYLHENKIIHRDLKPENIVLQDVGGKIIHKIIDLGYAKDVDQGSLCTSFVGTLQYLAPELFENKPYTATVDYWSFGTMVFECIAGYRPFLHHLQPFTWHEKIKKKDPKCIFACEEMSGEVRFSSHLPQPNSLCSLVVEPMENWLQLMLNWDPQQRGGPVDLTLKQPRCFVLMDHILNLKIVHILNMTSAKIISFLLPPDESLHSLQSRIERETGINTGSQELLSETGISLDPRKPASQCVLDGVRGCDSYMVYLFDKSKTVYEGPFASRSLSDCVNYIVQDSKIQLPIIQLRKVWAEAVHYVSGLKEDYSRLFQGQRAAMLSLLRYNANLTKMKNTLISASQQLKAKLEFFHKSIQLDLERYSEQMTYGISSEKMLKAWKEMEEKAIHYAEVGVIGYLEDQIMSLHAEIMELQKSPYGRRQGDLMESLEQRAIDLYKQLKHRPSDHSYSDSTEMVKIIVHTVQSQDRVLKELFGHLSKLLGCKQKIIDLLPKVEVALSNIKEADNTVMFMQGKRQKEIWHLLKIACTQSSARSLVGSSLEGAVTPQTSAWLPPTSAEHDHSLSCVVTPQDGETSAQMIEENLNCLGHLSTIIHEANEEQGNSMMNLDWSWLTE

[13] = target: DCLK1 (human) (UniProt O15075)
DCLK1 (human), sequence (O15075 whole entry, looked up): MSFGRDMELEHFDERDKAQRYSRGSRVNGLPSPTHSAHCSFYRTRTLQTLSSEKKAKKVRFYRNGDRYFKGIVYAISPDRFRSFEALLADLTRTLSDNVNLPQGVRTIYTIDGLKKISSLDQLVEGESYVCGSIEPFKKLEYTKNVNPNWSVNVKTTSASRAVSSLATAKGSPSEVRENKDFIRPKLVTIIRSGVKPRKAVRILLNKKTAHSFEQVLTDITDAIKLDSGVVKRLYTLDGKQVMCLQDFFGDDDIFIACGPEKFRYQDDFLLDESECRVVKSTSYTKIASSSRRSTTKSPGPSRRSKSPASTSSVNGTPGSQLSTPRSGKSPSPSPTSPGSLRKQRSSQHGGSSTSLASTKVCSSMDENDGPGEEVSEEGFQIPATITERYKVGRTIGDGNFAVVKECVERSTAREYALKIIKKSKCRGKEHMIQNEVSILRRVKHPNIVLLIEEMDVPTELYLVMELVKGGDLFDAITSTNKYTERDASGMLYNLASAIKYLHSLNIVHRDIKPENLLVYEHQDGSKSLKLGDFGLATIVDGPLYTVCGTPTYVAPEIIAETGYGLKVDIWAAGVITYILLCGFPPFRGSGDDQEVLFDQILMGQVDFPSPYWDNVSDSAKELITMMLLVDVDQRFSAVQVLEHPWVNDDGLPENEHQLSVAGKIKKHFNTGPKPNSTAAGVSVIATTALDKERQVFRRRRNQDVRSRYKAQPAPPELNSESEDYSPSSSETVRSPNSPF

[14] = target: PRKD3 (human) (UniProt O94806)
[15] = target: NEK7 (human) (UniProt Q8TDX7)
NEK7 (human), sequence (Q8TDX7 whole entry, looked up): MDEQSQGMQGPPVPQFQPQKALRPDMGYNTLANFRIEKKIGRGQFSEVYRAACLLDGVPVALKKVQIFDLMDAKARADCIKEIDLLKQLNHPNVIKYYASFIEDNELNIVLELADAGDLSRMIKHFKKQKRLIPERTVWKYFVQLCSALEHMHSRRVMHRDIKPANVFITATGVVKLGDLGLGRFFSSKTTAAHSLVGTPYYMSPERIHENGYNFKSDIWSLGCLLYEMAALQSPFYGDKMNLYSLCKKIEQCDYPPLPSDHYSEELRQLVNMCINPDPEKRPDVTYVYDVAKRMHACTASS

[16] = target: IRAK3 (human) (UniProt Q9Y616)
[17] = target: CSNK1G3 (human) (UniProt Q9Y6M4)
CSNK1G3 (human), sequence (Q9Y6M4 whole entry, looked up): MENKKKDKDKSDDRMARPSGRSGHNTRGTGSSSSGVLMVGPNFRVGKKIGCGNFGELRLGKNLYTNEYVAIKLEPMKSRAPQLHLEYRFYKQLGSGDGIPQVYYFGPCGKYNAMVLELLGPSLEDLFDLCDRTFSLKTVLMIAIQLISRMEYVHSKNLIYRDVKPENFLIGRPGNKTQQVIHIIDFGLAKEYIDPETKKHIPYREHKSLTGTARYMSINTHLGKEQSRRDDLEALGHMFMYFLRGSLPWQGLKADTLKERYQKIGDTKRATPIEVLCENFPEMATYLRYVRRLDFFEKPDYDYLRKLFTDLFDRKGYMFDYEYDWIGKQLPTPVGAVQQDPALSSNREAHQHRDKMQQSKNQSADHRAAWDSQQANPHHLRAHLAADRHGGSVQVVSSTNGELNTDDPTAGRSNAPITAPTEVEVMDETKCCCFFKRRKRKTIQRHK

[18] = target: MAPK9 (human) (UniProt P45984)
[19] = target: EPHA6 (human) (UniProt Q9UF33)
[20] = target: SBK1 (human) (UniProt Q52WX2)
[21] = target: OXSR1 (human) (UniProt O95747)
[22] = system: EGFR (human), P00533 [752-759 del]
EGFR (human), P00533 [752-759 del], sequence (P00533 whole entry, looked up, stated change not applied): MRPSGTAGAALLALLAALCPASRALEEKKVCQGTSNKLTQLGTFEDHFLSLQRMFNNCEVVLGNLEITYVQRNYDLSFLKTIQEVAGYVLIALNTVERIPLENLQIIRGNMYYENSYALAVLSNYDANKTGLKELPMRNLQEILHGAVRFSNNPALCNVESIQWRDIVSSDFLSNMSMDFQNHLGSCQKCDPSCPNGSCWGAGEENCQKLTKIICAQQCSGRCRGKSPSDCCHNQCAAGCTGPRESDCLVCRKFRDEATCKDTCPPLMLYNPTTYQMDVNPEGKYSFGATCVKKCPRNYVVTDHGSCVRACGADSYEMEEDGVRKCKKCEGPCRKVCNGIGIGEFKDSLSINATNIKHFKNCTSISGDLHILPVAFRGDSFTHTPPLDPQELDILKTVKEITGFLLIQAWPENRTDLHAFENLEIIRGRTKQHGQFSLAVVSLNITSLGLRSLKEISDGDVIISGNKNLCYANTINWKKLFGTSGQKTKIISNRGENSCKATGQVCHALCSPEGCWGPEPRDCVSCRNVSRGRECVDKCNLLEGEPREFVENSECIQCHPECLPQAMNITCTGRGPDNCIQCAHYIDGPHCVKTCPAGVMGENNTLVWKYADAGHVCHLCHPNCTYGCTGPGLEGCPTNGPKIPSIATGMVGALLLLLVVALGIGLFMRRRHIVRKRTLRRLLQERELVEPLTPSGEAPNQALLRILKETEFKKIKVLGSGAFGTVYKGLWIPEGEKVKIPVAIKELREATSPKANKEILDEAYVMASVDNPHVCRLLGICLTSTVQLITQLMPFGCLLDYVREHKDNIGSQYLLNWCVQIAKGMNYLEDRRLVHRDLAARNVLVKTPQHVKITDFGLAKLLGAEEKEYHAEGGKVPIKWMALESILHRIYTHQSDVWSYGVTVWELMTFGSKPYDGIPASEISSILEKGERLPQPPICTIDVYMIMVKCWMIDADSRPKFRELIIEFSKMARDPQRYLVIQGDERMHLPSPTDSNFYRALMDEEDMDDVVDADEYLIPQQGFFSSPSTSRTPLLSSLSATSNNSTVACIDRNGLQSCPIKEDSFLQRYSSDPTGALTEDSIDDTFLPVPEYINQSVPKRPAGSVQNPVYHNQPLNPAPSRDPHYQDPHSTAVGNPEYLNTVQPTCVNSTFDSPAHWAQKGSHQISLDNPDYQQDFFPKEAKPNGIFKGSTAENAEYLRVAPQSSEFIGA

[23] = target: TEC (human) (UniProt P42680)
TEC (human), sequence (P42680 whole entry, looked up): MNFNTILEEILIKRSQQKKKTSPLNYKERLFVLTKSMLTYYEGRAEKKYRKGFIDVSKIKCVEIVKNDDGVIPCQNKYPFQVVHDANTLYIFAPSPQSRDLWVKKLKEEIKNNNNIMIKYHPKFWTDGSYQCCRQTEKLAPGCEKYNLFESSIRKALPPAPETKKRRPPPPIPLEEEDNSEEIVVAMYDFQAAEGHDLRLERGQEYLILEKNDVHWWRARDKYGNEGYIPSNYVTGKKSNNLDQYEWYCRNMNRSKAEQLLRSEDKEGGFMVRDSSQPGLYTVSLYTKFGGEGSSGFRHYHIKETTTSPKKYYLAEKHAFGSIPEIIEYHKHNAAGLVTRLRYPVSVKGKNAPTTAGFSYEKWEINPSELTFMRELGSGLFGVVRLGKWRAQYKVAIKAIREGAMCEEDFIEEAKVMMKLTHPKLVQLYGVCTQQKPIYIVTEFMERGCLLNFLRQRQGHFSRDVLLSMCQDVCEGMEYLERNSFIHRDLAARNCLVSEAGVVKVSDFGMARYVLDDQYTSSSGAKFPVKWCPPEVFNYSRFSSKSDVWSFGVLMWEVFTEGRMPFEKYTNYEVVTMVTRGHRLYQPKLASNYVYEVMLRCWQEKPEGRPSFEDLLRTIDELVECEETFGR

[24] = system: RET (human), P07949 [V804M]
[25] = target: DYRK1A (human) (UniProt Q13627)
[26] = target: CHEK1 (human) (UniProt O14757)
CHEK1 (human), sequence (O14757 whole entry, looked up): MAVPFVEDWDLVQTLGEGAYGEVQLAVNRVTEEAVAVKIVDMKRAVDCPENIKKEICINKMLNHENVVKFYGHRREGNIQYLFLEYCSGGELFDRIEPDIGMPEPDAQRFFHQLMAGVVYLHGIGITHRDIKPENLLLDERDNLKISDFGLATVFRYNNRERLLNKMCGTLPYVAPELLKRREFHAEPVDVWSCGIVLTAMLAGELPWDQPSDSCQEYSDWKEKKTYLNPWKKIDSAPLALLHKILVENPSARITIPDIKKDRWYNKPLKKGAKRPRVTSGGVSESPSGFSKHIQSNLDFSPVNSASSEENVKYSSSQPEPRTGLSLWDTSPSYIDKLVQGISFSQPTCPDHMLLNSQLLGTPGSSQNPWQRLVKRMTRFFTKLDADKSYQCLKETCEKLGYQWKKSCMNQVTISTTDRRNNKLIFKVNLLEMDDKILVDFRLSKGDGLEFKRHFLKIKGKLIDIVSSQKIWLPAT

[27] = target: ACVRL1 (human) (UniProt P37023)
[28] = target: BRAF (human) (UniProt P15056)
[29] = target: CSNK1G2 (human) (UniProt P78368)
[30] = target: HIPK2 (human) (UniProt Q9H2X6)
[31] = target: MAP3K2 (human) (UniProt Q9Y2U5)
[32] = target: IRAK4 (human) (UniProt Q9NWZ3)
[33] = system: CPK1 (P.falciparum)
[34] = target: NEK6 (human) (UniProt Q9HC98)
[35] = target: PLK1 (human) (UniProt P53350)
[36] = target: STK33 (human) (UniProt Q9BYT3)
[37] = target: NEK5 (human) (UniProt Q6P3R8)
[38] = target: PRKACB (human) (UniProt P22694)
[39] = target: MAPK15 (human) (UniProt Q8TD08)
[40] = target: ADCK4 (human) (UniProt Q96D53)

MAP2K4 (human), sequence (P45985 whole entry, looked up): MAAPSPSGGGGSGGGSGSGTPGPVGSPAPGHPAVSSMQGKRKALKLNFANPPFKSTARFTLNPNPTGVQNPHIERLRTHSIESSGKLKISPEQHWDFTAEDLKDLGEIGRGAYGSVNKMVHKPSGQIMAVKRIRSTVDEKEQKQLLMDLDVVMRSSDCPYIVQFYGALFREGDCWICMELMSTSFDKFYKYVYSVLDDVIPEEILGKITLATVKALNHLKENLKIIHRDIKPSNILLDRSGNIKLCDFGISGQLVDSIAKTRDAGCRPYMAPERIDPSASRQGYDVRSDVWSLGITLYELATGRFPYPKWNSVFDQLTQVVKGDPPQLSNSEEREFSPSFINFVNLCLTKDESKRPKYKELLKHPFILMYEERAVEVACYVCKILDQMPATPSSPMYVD

SMILES: COc1cc(C(=O)N2CCC(N3CCN(C)CC3)CC2)ccc1Nc1ncc2c(n1)N(C)c1ccccc1C(=O)N2C
- kinase still bound, per cent of control [1]: 100%
- kinase still bound, per cent of control [2]: 100%
- kinase still bound, per cent of control [3]: 100%
- kinase still bound, per cent of control [4]: 100%
- kinase still bound, per cent of control [5]: 100%
- kinase still bound, per cent of control [6]: 62%
- kinase still bound, per cent of control [7]: 66%
- kinase still bound, per cent of control [8]: 100%
- kinase still bound, per cent of control [9]: 100%
- kinase still bound, per cent of control [10]: 100%
- kinase still bound, per cent of control [11]: 100%
- kinase still bound, per cent of control [12]: 100%
- kinase still bound, per cent of control [13]: 4.2%
- kinase still bound, per cent of control [14]: 42%
- kinase still bound, per cent of control [15]: 100%
- kinase still bound, per cent of control [16]: 100%
- kinase still bound, per cent of control [17]: 93%
- kinase still bound, per cent of control [18]: 94%
- kinase still bound, per cent of control [19]: 89%
- kinase still bound, per cent of control [20]: 100%
- kinase still bound, per cent of control [21]: 88%
- kinase still bound, per cent of control [22]: 99%
- kinase still bound, per cent of control [23]: 100%
- kinase still bound, per cent of control [24]: 80%
- kinase still bound, per cent of control [25]: 99%
- kinase still bound, per cent of control [26]: 100%
- kinase still bound, per cent of control [27]: 100%
- kinase still bound, per cent of control [28]: 81%
- kinase still bound, per cent of control [29]: 100%
- kinase still bound, per cent of control [30]: 88%
- kinase still bound, per cent of control [31]: 97%
- kinase still bound, per cent of control [32]: 83%
- kinase still bound, per cent of control [33]: 100%
- kinase still bound, per cent of control [34]: 76%
- kinase still bound, per cent of control [35]: 0.7%
- kinase still bound, per cent of control [36]: 10%
- kinase still bound, per cent of control [37]: 100%
- kinase still bound, per cent of control [38]: 100%
- kinase still bound, per cent of control [39]: 100%
- kinase still bound, per cent of control [40]: 94%

SMILES: CCN1CCN(C(=O)Cc2ccc(Nc3ncc(F)c(Nc4ccc(C(=O)Nc5ccccc5Cl)cc4)n3)cc2)CC1
- kinase still bound, per cent of control [1]: 3.2%
- kinase still bound, per cent of control [2]: 100%
- kinase still bound, per cent of control [3]: 100%
- kinase still bound, per cent of control [4]: 49%
- kinase still bound, per cent of control [5]: 79%
- kinase still bound, per cent of control [6]: 72%
- kinase still bound, per cent of control [7]: 39%
- kinase still bound, per cent of control [8]: 100%
- kinase still bound, per cent of control [9]: 77%
- kinase still bound, per cent of control [10]: 73%
- kinase still bound, per cent of control [11]: 56%
- kinase still bound, per cent of control [12]: 84%
- kinase still bound, per cent of control [13]: 74%
- kinase still bound, per cent of control [14]: 100%
- kinase still bound, per cent of control [15]: 2.6%
- kinase still bound, per cent of control [16]: 1.8%
- kinase still bound, per cent of control [17]: 100%
- kinase still bound, per cent of control [18]: 0.75%
- kinase still bound, per cent of control [19]: 46%
- kinase still bound, per cent of control [20]: 75%
- kinase still bound, per cent of control [21]: 100%
- kinase still bound, per cent of control [22]: 56%
- kinase still bound, per cent of control [23]: 42%
- kinase still bound, per cent of control [24]: 4.6%
- kinase still bound, per cent of control [25]: 47%
- kinase still bound, per cent of control [26]: 100%
- kinase still bound, per cent of control [27]: 100%
- kinase still bound, per cent of control [28]: 70%
- kinase still bound, per cent of control [29]: 58%
- kinase still bound, per cent of control [30]: 5%
- kinase still bound, per cent of control [31]: 31%
- kinase still bound, per cent of control [32]: 100%
- kinase still bound, per cent of control [33]: 29%
- kinase still bound, per cent of control [34]: 8.4%
- kinase still bound, per cent of control [35]: 94%
- kinase still bound, per cent of control [36]: 35%
- kinase still bound, per cent of control [37]: 7.9%
- kinase still bound, per cent of control [38]: 76%
- kinase still bound, per cent of control [39]: 54%
- kinase still bound, per cent of control [40]: 0.45%
